Test system: marine bacteria (26 strains)
Test: Disk inhibition assay
Assay type: cell-based, marine bacteria isolated from Singapore fouling communities
Settings: for zone of inhibition at 2 µg/disc: 2 μg per disc; for zone of inhibition at 10 µg/disc: 10 μg per disc; for zone of inhibition at 5 µg/disc: 5 μg per disc; for zone of inhibition at 15 µg/disc: 15 μg per disc
Method: Preparation of Drugs onto Disks for Assay
The non-antibiotic pharmaceuticals of Table 1 were prepared in the following way. A tablet with a known amount of active ingredient (as stated in the product information) was ground in a mortar and pestle and suspended in sterile deionized water to a concentration of 2 mg ml^−1. These samples were sonicated for at least 1 min. […] The two halves of the capsule were separated and the powder released straight into a bottle and suitable amount of water added to make a concentration of 2 mg ml^−1.
As a comparison to the pharmaceuticals, to determine the susceptibility of the bacterial isolates to conventional antibiotics, commercially available antibiotic discs were used. Antibiotic discs (Oxoid® CT series) containing Ampicillin [Amp] (2 and 10 μg), Erythromycin [Ery] (5 and 15 μg), Streptomycin [Str] (10 and 25 μg) and Tetracycline [Tet] (5 and 30 μg) were placed on lawns of the bacterial strains inoculated as described below.
Sterile swabs dipped into the cultures were used to inoculate Marine Agar plates with a bacterial lawn by smearing the culture over the surface. After inoculating the plates, discs with antibiotics, pharmaceuticals or control blanks were placed on each plate. Each concentration of antibiotic or pharmaceutical was tested with three replicates on three separate occasions. After the disks were placed on the agar surface, plates were incubated overnight in the dark at 30° C. After incubation, plates were examined for zones of inhibition or clearing around control and treated disks. The diameter of any zone of clearing or inhibition was measured using Vernier calipers.
The assay was repeated three times with three replicates for each concentration used, each time.

CC1(C)S[C@@H]2[C@H](NC(=O)[C@H](N)c3ccccc3)C(=O)N2[C@H]1C(=O)O [Amp, ampicillin]
zone of inhibition at 2 µg/disc (strain 1 (Rhodovulum)): 10 to 19 mm
zone of inhibition at 10 µg/disc (strain 1 (Rhodovulum)): 20 to 29 mm
zone of inhibition at 2 µg/disc (strain 2 (Erythrobacter)): < 6 mm
zone of inhibition at 10 µg/disc (strain 2 (Erythrobacter)): 10 to 19 mm
zone of inhibition at 2 µg/disc (strain 3 (Erythrobacter)): < 6 mm
zone of inhibition at 10 µg/disc (strain 3 (Erythrobacter)): < 6 mm
zone of inhibition at 2 µg/disc (strain 4 (Bacillus)): > 40 mm
zone of inhibition at 10 µg/disc (strain 4 (Bacillus)): > 40 mm
zone of inhibition at 2 µg/disc (strain 6 (Vibrio)): < 6 mm
zone of inhibition at 10 µg/disc (strain 6 (Vibrio)): < 6 mm
zone of inhibition at 2 µg/disc (strain 7 (Vibrio)): 6 to 9 mm
zone of inhibition at 10 µg/disc (strain 7 (Vibrio)): 10 to 19 mm
zone of inhibition at 2 µg/disc (strain 8 (Bacillus)): 20 to 29 mm
zone of inhibition at 10 µg/disc (strain 8 (Bacillus)): 30 to 39 mm
zone of inhibition at 2 µg/disc (strain 9 (Bacillus)): 10 to 19 mm
zone of inhibition at 10 µg/disc (strain 9 (Bacillus)): 30 to 39 mm
zone of inhibition at 2 µg/disc (strain 10 (Halobacillus)): 30 to 39 mm
zone of inhibition at 10 µg/disc (strain 10 (Halobacillus)): > 40 mm
zone of inhibition at 2 µg/disc (strain 11 (Pseudomonas)): 20 to 29 mm
zone of inhibition at 10 µg/disc (strain 11 (Pseudomonas)): 30 to 39 mm
zone of inhibition at 2 µg/disc (strain 12 (Gordonia)): < 6 mm
zone of inhibition at 10 µg/disc (strain 12 (Gordonia)): < 6 mm
zone of inhibition at 2 µg/disc (strain 13 (Bacillus)): 10 to 19 mm
zone of inhibition at 10 µg/disc (strain 13 (Bacillus)): 10 to 19 mm
zone of inhibition at 2 µg/disc (strain 14 (Vibrio)): 10 to 19 mm
zone of inhibition at 10 µg/disc (strain 14 (Vibrio)): 20 to 29 mm
zone of inhibition at 2 µg/disc (strain 16 (Pseudoalteromonas)): 6 to 9 mm
zone of inhibition at 10 µg/disc (strain 16 (Pseudoalteromonas)): 10 to 19 mm
zone of inhibition at 2 µg/disc (strain 17 (Gordonia)): < 6 mm
zone of inhibition at 10 µg/disc (strain 17 (Gordonia)): < 6 mm
zone of inhibition at 2 µg/disc (strain 18 (Microbacterium)): 20 to 29 mm
zone of inhibition at 10 µg/disc (strain 18 (Microbacterium)): 20 to 29 mm
zone of inhibition at 2 µg/disc (strain 19 (Erythrobacter)): 20 to 29 mm
zone of inhibition at 10 µg/disc (strain 19 (Erythrobacter)): 20 to 29 mm
zone of inhibition at 2 µg/disc (strain 20): < 6 mm
zone of inhibition at 10 µg/disc (strain 20): 20 to 29 mm
zone of inhibition at 2 µg/disc (strain 21): < 6 mm
zone of inhibition at 10 µg/disc (strain 21): < 6 mm
zone of inhibition at 2 µg/disc (strain 22): 10 to 19 mm
zone of inhibition at 10 µg/disc (strain 22): 10 to 19 mm
zone of inhibition at 2 µg/disc (strain 24): 30 to 39 mm
zone of inhibition at 10 µg/disc (strain 24): > 40 mm
zone of inhibition at 2 µg/disc (strain 26): 10 to 19 mm
zone of inhibition at 10 µg/disc (strain 26): 10 to 19 mm
zone of inhibition at 2 µg/disc (strain 27): 20 to 29 mm
zone of inhibition at 10 µg/disc (strain 27): 30 to 39 mm
zone of inhibition at 2 µg/disc (strain 28): 6 to 9 mm
zone of inhibition at 10 µg/disc (strain 28): 10 to 19 mm
zone of inhibition at 2 µg/disc (strain 29): 30 to 39 mm
zone of inhibition at 10 µg/disc (strain 29): 30 to 39 mm
zone of inhibition at 2 µg/disc (strain 30): 30 to 39 mm
zone of inhibition at 10 µg/disc (strain 30): 20 to 29 mm

CC[C@H]1OC(=O)[C@H](C)[C@@H](O[C@H]2C[C@@](C)(OC)[C@@H](O)[C@H](C)O2)[C@H](C)[C@@H](O[C@@H]2O[C@H](C)C[C@H](N(C)C)[C@H]2O)[C@](C)(O)C[C@@H](C)C(=O)[C@H](C)[C@@H](O)[C@]1(C)O [Ery, erythromycin]
Effectiveness of antibiotics against strains of marine bacteria (commercial antibiotic discs, in words): effective against most of the strains of marine bacteria
zone of inhibition at 5 µg/disc (strain 1 (Rhodovulum)): < 6 mm
zone of inhibition at 15 µg/disc (strain 1 (Rhodovulum)): < 6 mm
zone of inhibition at 5 µg/disc (strain 2 (Erythrobacter)): < 6 mm
zone of inhibition at 15 µg/disc (strain 2 (Erythrobacter)): 20 to 29 mm
zone of inhibition at 5 µg/disc (strain 3 (Erythrobacter)): 10 to 19 mm
zone of inhibition at 15 µg/disc (strain 3 (Erythrobacter)): 20 to 29 mm
zone of inhibition at 5 µg/disc (strain 4 (Bacillus)): > 40 mm
zone of inhibition at 15 µg/disc (strain 4 (Bacillus)): 30 to 39 mm
zone of inhibition at 5 µg/disc (strain 6 (Vibrio)): < 6 mm
zone of inhibition at 15 µg/disc (strain 6 (Vibrio)): 10 to 19 mm
zone of inhibition at 5 µg/disc (strain 7 (Vibrio)): 10 to 19 mm
zone of inhibition at 15 µg/disc (strain 7 (Vibrio)): 10 to 19 mm
zone of inhibition at 5 µg/disc (strain 8 (Bacillus)): 20 to 29 mm
zone of inhibition at 15 µg/disc (strain 8 (Bacillus)): 30 to 39 mm
zone of inhibition at 5 µg/disc (strain 9 (Bacillus)): 30 to 39 mm
zone of inhibition at 15 µg/disc (strain 9 (Bacillus)): 30 to 39 mm
zone of inhibition at 5 µg/disc (strain 10 (Halobacillus)): 30 to 39 mm
zone of inhibition at 15 µg/disc (strain 10 (Halobacillus)): > 40 mm
zone of inhibition at 5 µg/disc (strain 11 (Pseudomonas)): 20 to 29 mm
zone of inhibition at 15 µg/disc (strain 11 (Pseudomonas)): 20 to 29 mm
zone of inhibition at 5 µg/disc (strain 12 (Gordonia)): < 6 mm
zone of inhibition at 15 µg/disc (strain 12 (Gordonia)): 10 to 19 mm
zone of inhibition at 5 µg/disc (strain 13 (Bacillus)): 20 to 29 mm
zone of inhibition at 15 µg/disc (strain 13 (Bacillus)): 20 to 29 mm
zone of inhibition at 5 µg/disc (strain 14 (Vibrio)): < 6 mm
zone of inhibition at 15 µg/disc (strain 14 (Vibrio)): 10 to 19 mm
zone of inhibition at 5 µg/disc (strain 16 (Pseudoalteromonas)): 10 to 19 mm
zone of inhibition at 15 µg/disc (strain 16 (Pseudoalteromonas)): 6 to 9 mm
zone of inhibition at 5 µg/disc (strain 17 (Gordonia)): > 40 mm
zone of inhibition at 15 µg/disc (strain 17 (Gordonia)): > 40 mm
zone of inhibition at 5 µg/disc (strain 18 (Microbacterium)): 6 to 9 mm
zone of inhibition at 15 µg/disc (strain 18 (Microbacterium)): 10 to 19 mm
zone of inhibition at 5 µg/disc (strain 19 (Erythrobacter)): 20 to 29 mm
zone of inhibition at 15 µg/disc (strain 19 (Erythrobacter)): 20 to 29 mm
zone of inhibition at 5 µg/disc (strain 20): 10 to 19 mm
zone of inhibition at 15 µg/disc (strain 20): 20 to 29 mm
zone of inhibition at 5 µg/disc (strain 21): 20 to 29 mm
zone of inhibition at 15 µg/disc (strain 21): 20 to 29 mm
zone of inhibition at 5 µg/disc (strain 22): 10 to 19 mm
zone of inhibition at 15 µg/disc (strain 22): 30 to 39 mm
zone of inhibition at 5 µg/disc (strain 24): 20 to 29 mm
zone of inhibition at 15 µg/disc (strain 24): 20 to 29 mm
zone of inhibition at 5 µg/disc (strain 26): 20 to 29 mm
zone of inhibition at 15 µg/disc (strain 26): 20 to 29 mm
zone of inhibition at 5 µg/disc (strain 27): 20 to 29 mm
zone of inhibition at 15 µg/disc (strain 27): 20 to 29 mm
zone of inhibition at 5 µg/disc (strain 28): 20 to 29 mm
zone of inhibition at 15 µg/disc (strain 28): 20 to 29 mm
zone of inhibition at 5 µg/disc (strain 29): 30 to 39 mm
zone of inhibition at 15 µg/disc (strain 29): 20 to 29 mm
zone of inhibition at 5 µg/disc (strain 30): 20 to 29 mm
zone of inhibition at 15 µg/disc (strain 30): 20 to 29 mm

— patent US20060110456A1, “Method for biocidal and/or biostatic treatment and compositions therefor” (NATIONAL UNIVERSITY OF SINGAPORE, priority 2004, published 2006)
